Results from patent publication US20090105562A1, “SYSTEM AND METHODS FOR SCREENING OR ANALYZING TARGETS” (TAIPEI VETERANS GENERAL HOSPITAL, priority 2007, published 2009).

Experiments:
c-FLIP [1] = experiment: Protein levels of c-FLIP and pro-caspases in fluoxetine-treated NSCs (Western, immunostaining); format: cell-based, rat
Experimental: (§1) All animal used were treated in accordance with the Animal Care and Use Committee guideline at Taipei Veterans General Hospital. Adult Sprague-Dawley rats (8 weeks old, 250 g) were anesthetized with intraperitoneal phenobarbital (Sigma, USA). The location of their brains was mapped: then, the brain was surgically separated from the hippocampus region with the procedure. Tissues from the hippocampus of the adult SD rats were dissociated and incubated in Hank's balanced salt solution (HBSS) containing collagenase (78 units/ml) and hyaluronidase (38 units/ml) for 10 mins at 37° C. The tissues were then mechanically dissected and placed in a trypsin solution (1.33 mg/ml) at 37° C. for another 10 mins. Dissociated cells were then centrifuged at 150 g for 5 mins. The enzyme solution was then removed and replaced with serum-free culture media composed of Dulbecco modified Eagle medium (DMEM) and F-12 nutrient (1:1) including insulin (25 μg/mL), transferrin (100 μg/mL), progesterone (20 nM), putrescine (60 μM), sodium selenite (30 nM), and human recoFLinant epidermal growth factor (EGF) 20 ng/mL and fibroblast growth factor-basic (bFGF) 20 ng/mL (R&D Systems, Minneapolis, Minn.). Viable cells were counted by trypan blue exclusion and plated as 5000 cells/200 μL per well in 96-well plates (Corning, Acton, Mass.) with no substrate pretreatment.
The pGL3-FLIP was obtained from based on T. Bartke et al., Oncogene 20 (2001) 571-580. The c-FLIP promoter deletion constructs pGL3-FLIP978, pGL3-FLIP696, pGL3-FLIP414 and pGL3-FLIP132 were generated by PCR amplification of corresponding DNA sequences from pGL3-FLIP using the following forward primers 5′-[…] […]
An avidin-biotin complex method was used for the immunohistochemical staining in the differentiated NSCs. […] Immunoreactive signals were detected with a mixture of biotinylated rabbit antimouse IgG and Fluoesave (Calbiochem, La Jolla, Calif., USA) under immunofluorescent microscope (Olympus FV300).

c-FLIP [2] = experiment: c-FLIP mRNA expression in fluoxetine-treated NSCs (real-time RT-PCR); format: cell-based, rat; conditions: FL-treated NSCs
Experimental: as §1, with “The enzyme solution was then removed and replaced with serum-free culture media composed of Dulbecco modified Eagle medium (DMEM) and F-12 nutrient (1:1) including insulin (25 μg/mL), transferrin (100 μg/mL), progesterone (20 nM), putrescine (60 μM), sodium selenite (30 nM), and human recoFLinant epidermal growth factor (EGF) 20 ng/mL and fibroblast growth factor-basic (bFGF) 20 ng/mL (R&D Systems, Minneapolis, Minn.).” left out
For real-time RT-PCR, the total RNA was extracted using the RNAeasy kit (Qiagen, Valencia, Calif., USA) as previously described C. […] The quantification in the unknown samples was performed by the LightCycler Relative Quantification Software version 3.3 (Roche Molecular Systems, Alameda, Calif., USA). […]

c-FLIP promoter = c-FLIP promoter luciferase assay in fluoxetine-treated NSCs; format: cell-based, rat; conditions: fluoxetine 20 μm
Experimental: as §1, with “pretreatment. […]” for “pretreatment.”

[3] = Bile duct microdialysis with HPLC-UV of unbound cefoperazone in rat bile; format: in vivo; conditions: male, Sprague-Dawley, bile microdialysate (bile duct), 360 min following cefoperazone intravenous administration (30 mg/kg), read-out: cefoperazone concentration in microdialysate from rat biliary duct
Experimental: Adult, male Sprague-Dawley rats (280-350 g) were obtained from the Laboratory Animal Center at National Yang-Ming University (Taipei, Taiwan). These animals were specifically pathogen-free and were allowed to acclimate to their environmentally controlled quarters (24±1° C. and 12:12 h light-dark cycle) for at least 5 days before the experiments began. At the start of experiments, the rats were anesthetized with urethane 0.8 g/ml and chloralose 0.08 g/ml ([…], i.p.). Throughout the experimental period, anesthesia was maintained by administering one quarter of the initial dose at each hour. The experimental animals were kept warm with a heating pad throughout the experiments.
The HPLC system consisted of a chromatographic pump (BAS PM-80, Bioanalytical System, West Lafayette, Ind., USA), an on-line injector (CMA/160, Stockholm, Sweden) equipped with a 20 μl sample loop and a UV detector (Soma S-3702, Tokyo, Japan). […] Output signal from the HPLC-UV was recorded using an EZChrom chromatographic data system (Scientific Software, San Ramon, Calif., USA). […]
For in vivo recovery, normal saline solution containing cefoperazone (50 or 100 μg/ml) were pumped through the probes at a constant flow rate (2 μl/min) using the infusion pump (CMA/100). After a stabilization period of 2 h, the inlet (C^in) and outlet (C^out) concentrations of cefoperazone were determined by HPLC. […]

[4] = different concentrations of fluoxetine treatment

| c-FLIP promoter (−414 to −133 bp) region activity (c-FLIP promoter) | Structure (SMILES) | protein expression of c-FLIP (c-FLIP [1]; FL-treated NSCs) | protein level of inactive caspase 3 (pro-form) (c-FLIP [1]; [4]) | protein level of inactive caspase 8 (pro-form) (c-FLIP [1]; [4]) | mRNA expression of c-FLIP (c-FLIP [2]) | concentration at 360 min [3] [ng/mL] |
| --- | --- | --- | --- | --- | --- | --- |
| Activates | CNCCC(Oc1ccc(C(F)(F)F)cc1)c1ccccc1 (stereo not drawn) [FL, fluoxetine] | up-regulated | not decreased | not decreased | up-regulated | – |
| – | CCN1CCN(C(=O)N[C@@H](C(=O)N[C@@H]2C(=O)N3C(C(=O)O)=C(CSc4nnnn4C)CS[C@H]23)c2ccc(O)cc2)C(=O)C1=O [cefoperazone] | – | – | – | – | 27800 |
